Reference: US5641779A, “Selective ligands of 5-HT1D -5-HT1B receptors derived from indolepiperazine which are useful medicaments” (Pierre Fabre Medicament, priority 1992, dated 1997)
Counter-ions that a name gives are not always drawn. Like-named read-outs stand apart in the source and are kept apart here.

Key:
5-HT1D = experiment: Affinity for 5-HT1D receptors (3H-5-HT binding, sheep caudate nuclei membranes); settings: Ratio of the IC50 values for the 5HT1A and 5HT1D receptors
Protocol: This study is carried out according to the technique described by Herrick-Davis and Titeler (J. Neurochem. 50, 1624-1631, 1988).
Preparation of the membranes:
Sheep brains are removed at the local abattoir and transported in ice. The caudate nuclei are removed, weighed and homogenized with a Polytron for 20 sec. (speed 6-7) in 20 volumes of Tris-HCl 50 mM, pH 7.7. The homogenate is centrifuged for 10 min at 48,000 g with an L5 50E centrifuge (Beckman).
The pellet, taken up in 20 volumes of Tris-HCl 50 mM, pH 7.7, is placed in a water bath at 37° C. for 10 min and then recentrifuged for 10 min at 48,000 g. The pellet then obtained is immediately frozen in fractions containing 0.5 g of tissue.
The pellet is defrosted and homogenized with a Dounce in 80 volumes of Tris-HCl, 50 mM pH 7.7 containing 4 mM CaCl2, 10μM of pargyline and 0.1% of ascorbic acid.
Binding is carried out at 25° C. by incubating for 30 min:
0.1 ml of buffer or 10 μM, as final concentration, of sumatriptan, in order to obtain the non-specific binding, or the product which forms part of this invention at various concentrations (between 10^-10 and 10^-6 M).
0.8 ml of membrane suspension
0.1 ml of ^3 H-5-HT (15 to 30 Ci/mM, New England Nuclear France)
The incubation is brought to an end by rapid filtration through GF/B filters and rinsing with 3 times 3 ml of ice-cold buffer, using a harvester manufactured by Brandel which makes it possible to filter 48 samples. The filters are introduced into vials containing 4 ml of emulsifier-safe liquid scintillant (Packard) and the radioactivity measured with a Tri-carb 4640 counter (Packard).
The IC50 (concentration which inhibits the specific affinity by 50%) is determined graphically.

5-HT1A = biological target: T1, 5-HT1A (Rattus norvegicus, UniProt P19327); experiment: 5-HT1A receptor binding (Peroutka)
T1 construct: from tissue; host or cells: rat frontal cortex
T1 sequence (P19327 1-422): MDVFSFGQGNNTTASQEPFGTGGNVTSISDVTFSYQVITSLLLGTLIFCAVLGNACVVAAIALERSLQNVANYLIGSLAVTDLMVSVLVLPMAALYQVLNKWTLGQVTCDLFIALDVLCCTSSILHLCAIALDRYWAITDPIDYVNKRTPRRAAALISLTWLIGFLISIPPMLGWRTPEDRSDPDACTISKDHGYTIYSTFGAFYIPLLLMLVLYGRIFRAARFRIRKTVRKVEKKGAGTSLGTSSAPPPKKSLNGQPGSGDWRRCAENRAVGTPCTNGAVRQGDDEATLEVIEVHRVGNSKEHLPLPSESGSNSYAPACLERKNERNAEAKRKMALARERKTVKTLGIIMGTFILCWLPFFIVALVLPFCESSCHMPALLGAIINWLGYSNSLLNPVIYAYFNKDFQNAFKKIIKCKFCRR
Protocol: (§1) The IC50 values of the various products which form part of this invention for the other receptors were measured according to the techniques described in the following references:
(§2) Peroutka S. J. Pharmacological differentiation and characterization of 5-HT1A, 5-HT1B and 5-HT1C binding sites in rat frontal cortex. J. Neurochem., 45, 529-540, 1986.

5-HT1B = biological target: T2, 5-HT1B (Rattus norvegicus, UniProt P28564); experiment: 5-HT1B receptor binding (Peroutka)
T2 construct: from tissue; host or cells: rat frontal cortex
Protocol: as §1, §2

5-HT1C = biological target: T3, 5-HT1C (Sus scrofa, UniProt K7GSR7); experiment: 5-HT1C receptor binding (Pazos et al.); parameters: species or system porcine
T3 construct: serotonergic ligands to the porcine choroid plexus; from tissue; host or cells: porcine choroid plexus
T3 sequence (K7GSR7 1-457): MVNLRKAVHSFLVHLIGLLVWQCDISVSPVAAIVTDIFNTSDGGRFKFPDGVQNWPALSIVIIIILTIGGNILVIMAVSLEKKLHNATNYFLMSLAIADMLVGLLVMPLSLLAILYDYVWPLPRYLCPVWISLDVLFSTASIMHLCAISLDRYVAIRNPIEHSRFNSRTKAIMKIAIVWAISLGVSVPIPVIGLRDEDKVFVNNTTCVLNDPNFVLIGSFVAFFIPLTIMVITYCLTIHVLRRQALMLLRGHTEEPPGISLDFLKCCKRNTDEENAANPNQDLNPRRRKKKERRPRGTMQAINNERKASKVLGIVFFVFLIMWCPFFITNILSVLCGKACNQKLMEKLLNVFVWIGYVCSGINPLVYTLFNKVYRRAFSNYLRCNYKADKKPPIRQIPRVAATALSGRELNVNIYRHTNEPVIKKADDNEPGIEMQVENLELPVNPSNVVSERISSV
Protocol: as §1
Pazos A., Hoyer D. and Palacios J. M. The binding sites of serotonergic ligands to the porcine choroid plexus: characterization of a new type of serotonin recognition site. Eur. J. Pharmacol., 106, 539-546, 1985.

5-HT2 = biological target: T4, 5-HT2 (Rattus norvegicus, UniProt P14842); experiment: 5-HT2 receptor binding (Leysen et al.); settings: 3H-ketanserine (title of cited method)
T4 construct: from tissue
Protocol: as §1
Leysen J. E., Niemegeers C. J. E., Van Nueten J. M. and Laduron P.M. ^3 H-ketanserine (R 41468), a selective ^3 H ligand for serotonin2 receptor binding sites. Mol. Pharmacol., 21, 301-330, 1982.

α2-Adrenergic receptor = biological target: T5, α2-Adrenergic receptor (Rattus norvegicus, UniProt P22909); experiment: α2-Adrenergic receptor binding (Mallard et al.)
T5 construct: in the rat brain; from tissue; host or cells: rat brain
T5 sequence (P22909 1-465): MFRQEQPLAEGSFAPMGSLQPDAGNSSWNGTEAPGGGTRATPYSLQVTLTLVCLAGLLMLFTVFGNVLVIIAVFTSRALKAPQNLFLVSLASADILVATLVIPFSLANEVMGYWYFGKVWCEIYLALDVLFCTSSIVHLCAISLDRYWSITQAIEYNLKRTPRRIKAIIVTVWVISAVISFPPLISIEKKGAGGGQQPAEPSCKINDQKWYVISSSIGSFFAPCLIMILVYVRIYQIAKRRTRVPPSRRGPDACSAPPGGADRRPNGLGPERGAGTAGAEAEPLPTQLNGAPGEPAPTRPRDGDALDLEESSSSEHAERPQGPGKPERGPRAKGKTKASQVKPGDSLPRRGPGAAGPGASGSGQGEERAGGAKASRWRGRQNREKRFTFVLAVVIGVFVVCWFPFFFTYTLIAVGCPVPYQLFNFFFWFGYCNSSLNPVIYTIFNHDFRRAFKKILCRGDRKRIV
Protocol: as §1
Mallard N. J., Tyacke R., Hudson A. L. and Nutt D. S. Comparative binding studies of ^3 -idazoxan and ^3 -RX821002 in the rat brain. Brit. J. Pharmacol. 102, 221P, 1991.

α1-Adrenergic receptor = α1-Adrenergic receptor binding (Leslie Morrow and Creese); settings: rat brain (title of cited method)
Protocol: as §1
Leslie Morrow A. and Creese I. Characterization of α1-adrenergic receptor subtypes in rat brain: a reevaluation of ^3 H-WB4101 and ^3 H prazosin binding. Mol. Pharmacol. 29, 321-330, 1986.

D2-Dopaminergic receptor = biological target: T6, D2-Dopaminergic receptor (Canis lupus familiaris, UniProt Q9GJU1); experiment: D2-Dopaminergic receptor binding (Nisnik et al.)
T6 construct: from tissue
Protocol: as §1
Nisnik H. B., Grigoriadis D. E., Pri-Bar I., Buckman O. and Seeman P. Dopamine D2 receptors selectively labeled by a benzamide neuroleptic: ^3 H-YM-09159-2 Naunyn-Schmiedeberg's Arch. Pharmacol. 329, 333-343, 1985.

[1] = rat brain (title of cited method), read-out: IC50 α2
[2] = 3H-YM-09159-2 (title of cited method), read-out: IC50 D2
[3] = rat frontal cortex (title of cited method), mean, read-out: IC50 5-HT1A mean
[4] = porcine choroid plexus (title of cited method), read-out: IC50 5-HT1C

T6 sequence (Q9GJU1 whole entry): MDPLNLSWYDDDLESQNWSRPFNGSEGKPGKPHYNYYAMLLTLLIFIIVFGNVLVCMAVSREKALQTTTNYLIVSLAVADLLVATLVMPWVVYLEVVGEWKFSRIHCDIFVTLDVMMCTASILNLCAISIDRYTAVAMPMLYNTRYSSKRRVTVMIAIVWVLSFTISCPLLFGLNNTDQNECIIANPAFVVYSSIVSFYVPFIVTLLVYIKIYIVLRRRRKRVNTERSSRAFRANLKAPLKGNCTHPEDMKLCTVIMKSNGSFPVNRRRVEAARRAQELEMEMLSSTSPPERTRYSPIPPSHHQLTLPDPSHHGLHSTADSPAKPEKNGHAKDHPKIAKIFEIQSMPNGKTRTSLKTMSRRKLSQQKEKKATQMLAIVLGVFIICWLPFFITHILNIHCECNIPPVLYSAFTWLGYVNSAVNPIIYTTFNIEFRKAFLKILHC
T2 sequence (P28564 whole entry): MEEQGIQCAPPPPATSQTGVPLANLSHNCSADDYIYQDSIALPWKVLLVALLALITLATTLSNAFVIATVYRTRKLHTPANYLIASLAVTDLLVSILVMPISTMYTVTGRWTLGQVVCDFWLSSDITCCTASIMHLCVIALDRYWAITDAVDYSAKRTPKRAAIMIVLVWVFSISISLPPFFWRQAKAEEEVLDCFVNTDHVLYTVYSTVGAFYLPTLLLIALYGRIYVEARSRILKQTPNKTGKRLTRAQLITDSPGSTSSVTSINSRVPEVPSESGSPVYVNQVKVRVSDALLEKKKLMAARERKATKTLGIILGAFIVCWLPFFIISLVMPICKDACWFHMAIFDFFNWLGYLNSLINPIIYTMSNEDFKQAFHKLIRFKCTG
T4 sequence (P14842 whole entry): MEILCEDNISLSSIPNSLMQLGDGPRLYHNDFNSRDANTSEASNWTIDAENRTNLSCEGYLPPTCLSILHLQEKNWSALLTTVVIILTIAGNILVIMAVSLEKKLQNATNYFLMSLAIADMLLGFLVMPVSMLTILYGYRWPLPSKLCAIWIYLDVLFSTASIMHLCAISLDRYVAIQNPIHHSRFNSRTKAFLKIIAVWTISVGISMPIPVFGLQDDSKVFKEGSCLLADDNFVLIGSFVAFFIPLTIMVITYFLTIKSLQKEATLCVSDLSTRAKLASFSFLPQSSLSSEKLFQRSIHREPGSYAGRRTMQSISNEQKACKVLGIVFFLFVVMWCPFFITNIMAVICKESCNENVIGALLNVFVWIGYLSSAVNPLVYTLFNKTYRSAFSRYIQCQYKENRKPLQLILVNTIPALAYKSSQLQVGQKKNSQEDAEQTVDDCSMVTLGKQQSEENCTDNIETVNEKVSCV

Structure (SMILES) | Ratio 1A/1D (5-HT1D) | IC50 (5-HT1A) [nM] | IC50 (5-HT1B) [nM] | IC50 (5-HT1C) [nM] | IC50 (5-HT2) [nM] | IC50 (α2-Adrenergic receptor; [1]) [nM] | IC50 (α1-Adrenergic receptor) [nM] | IC50 (D2-Dopaminergic receptor; [2]) [nM] | IC50 (5-HT1A; [3]) [nM] | IC50 (5-HT1B; rat frontal cortex (title of cited method), mean, read-out: IC50 5-HT1B mean) [nM] | IC50 (5-HT1C; [4]) [nM] | IC50 (α2-Adrenergic receptor) [nM] | IC50 (D2-Dopaminergic receptor) [nM]
Cc1ccccc1N1CCN(C(=O)COc2ccc3[nH]cc(CCN)c3c2)CC1 [Example 1, 4-o-Tolyl-1-.(tryptamine-5-O-carboxymethyl)-piperazide hydrochloride] | 11.2 | 23.5 | 0.6 | 3000 | > 1000 | > 1000 | > 1000 | > 1000 | – | – | – | – | –
NCCc1c[nH]c2ccc(OCC(=O)N3CCN(c4cccc(C(F)(F)F)c4)CC3)cc12 [Example 3, 4-(a,a,a-Trifluoro-m-tolyl)-1-(tryptamine-5-O-carboxymethyl) piperazide hydrochloride] | 4.8 | 33.5 | 1.9 | 4000 | > 1000 | > 1000 | > 1000 | > 1000 | – | – | – | – | –
NCCc1c[nH]c2ccc(OCC(=O)N3CCN(c4cccc5ccccc45)CC3)cc12 [Example 4, 4-(Naphth-1-yl)-1-(tryptamine-5-O-carboxymethyl) piperazide hydrochloride] | 35.9 | – | 1.9 | 1800 | > 1000 | > 1000 | > 1000 | > 1000 | 115 | – | – | – | –
Cc1cccc(N2CCN(C(=O)COc3ccc4[nH]cc(CCN)c4c3)CC2)c1C [Example 5, 4-(2,3-Xylyl)-1-(tryptamine-5-O-carboxymethyl) piperazide hydrochloride] | 8.2 | – | 6 | > 1000 | > 1000 | > 1000 | > 1000 | > 1000 | 240 | – | – | – | –
Cc1cccc(N2CCN(C(=O)COc3ccc4[nH]cc(CCNC(=O)OC(C)(C)C)c4c3)CC2)c1C [Example 5A, 4-(2,3 -Xylyl)-1-(tert-butoxycarbamate-tryptamine-5-O-carboxymethyl)piperazide hydrochloride] | 17.3 | – | – | – | > 1000 | > 1000 | > 1000 | > 1000 | 34.5 | 1 | 1000 | – | –
COc1cccc(N2CCN(C(=O)COc3ccc4[nH]cc(CCN)c4c3)CC2)c1 [Example 6, 4-(m-Methoxyphenyl)-1-(tryptamine-5-O-carboxymethyl) piperazide hydrochloride] | 8.1 | 23.5 | 1.1 | – | > 1000 | – | > 1000 | – | – | – | > 1000 | > 1000 | > 1000
